The source made the active and inactive calls. The calls are words filed in the database; no cut-off is given here.

We go through 1 molecule from ChEMBL document CHEMBL3734692, “Design and synthesis of 2-oxindole based multi-targeted inhibitors of PDK1/Akt signaling pathway for the treatment of glioblastoma multiforme” (Eur J Med Chem, 2015).

The target in assay [1] is AMP-activated protein kinase, AMPK (Homo sapiens) (UniProt P54646+O43741+P54619+Q9UGJ0+Q9Y478+Q13131+Q9UGI9). Put plainly: Inhibition of AMPK A1/B1/G1 (unknown origin) at 1 uM by selectscreen kinase profiling assay in presence of ATP. The format is protein-complex assay.
The nature of assay [2]: Cell cycle arrest in human ANGM-CSS cells assessed as accumulation at G2/M phase at 1 uM after 7 days by based fluorescent reagent based cell analysis (reference value: 23.8%). The format is functional.
The subject of assay [3] is ANGM-CSS. The assay can be described thus: Antiproliferative activity against human GSC derived from ANGM-CSS cells after 7 days by MTS assay. The format is functional, cell-based.
Assay [4] concerns ANGM-CSS. Put plainly: Antiproliferative activity against human GSC derived from ANGM-CSS cells by MTS assay. The assay is classed as functional, cell-based. The note with it: TDE = time-dependent effect.
Assay [5] deals with ANGM-CSS. The assay can be described thus: Reduction of neurosphere formation in human GSC derived from ANGM-CSS cells assessed as decrease in number and diameter of newly generated neurospheres at 1 uM after 9 days by microscopic analysis. The format is functional, cell-based.
For assay [6], the target named is Serine/threonine-protein kinase Chk2 (Homo sapiens) (UniProt O96017). The assay can be described thus: Inhibition of CHEK2 (unknown origin) at 1 uM by selectscreen kinase profiling assay in presence of ATP.
Sequence of Serine/threonine-protein kinase Chk2 (Homo sapiens) (O96017 whole entry): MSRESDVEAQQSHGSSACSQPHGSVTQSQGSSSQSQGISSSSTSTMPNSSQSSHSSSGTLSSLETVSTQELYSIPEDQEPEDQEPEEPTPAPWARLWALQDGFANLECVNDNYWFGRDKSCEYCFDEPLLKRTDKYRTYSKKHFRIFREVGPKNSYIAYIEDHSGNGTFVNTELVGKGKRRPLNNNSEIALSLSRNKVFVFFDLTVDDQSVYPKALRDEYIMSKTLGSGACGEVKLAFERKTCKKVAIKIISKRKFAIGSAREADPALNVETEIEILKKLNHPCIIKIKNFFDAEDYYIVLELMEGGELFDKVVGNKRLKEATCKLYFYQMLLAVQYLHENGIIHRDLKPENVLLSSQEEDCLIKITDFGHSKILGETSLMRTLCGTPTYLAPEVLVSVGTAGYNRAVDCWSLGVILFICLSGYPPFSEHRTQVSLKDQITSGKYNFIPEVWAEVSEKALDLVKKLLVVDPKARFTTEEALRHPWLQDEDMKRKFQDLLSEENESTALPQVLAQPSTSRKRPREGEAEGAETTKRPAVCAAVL
Assay [7] deals with Tyrosine-protein kinase JAK1 (Homo sapiens) (UniProt P23458). Put plainly: Inhibition of JAK1 (unknown origin) at 1 uM by selectscreen kinase profiling assay in presence of ATP.
Sequence of Tyrosine-protein kinase JAK1 (Homo sapiens) (P23458 whole entry): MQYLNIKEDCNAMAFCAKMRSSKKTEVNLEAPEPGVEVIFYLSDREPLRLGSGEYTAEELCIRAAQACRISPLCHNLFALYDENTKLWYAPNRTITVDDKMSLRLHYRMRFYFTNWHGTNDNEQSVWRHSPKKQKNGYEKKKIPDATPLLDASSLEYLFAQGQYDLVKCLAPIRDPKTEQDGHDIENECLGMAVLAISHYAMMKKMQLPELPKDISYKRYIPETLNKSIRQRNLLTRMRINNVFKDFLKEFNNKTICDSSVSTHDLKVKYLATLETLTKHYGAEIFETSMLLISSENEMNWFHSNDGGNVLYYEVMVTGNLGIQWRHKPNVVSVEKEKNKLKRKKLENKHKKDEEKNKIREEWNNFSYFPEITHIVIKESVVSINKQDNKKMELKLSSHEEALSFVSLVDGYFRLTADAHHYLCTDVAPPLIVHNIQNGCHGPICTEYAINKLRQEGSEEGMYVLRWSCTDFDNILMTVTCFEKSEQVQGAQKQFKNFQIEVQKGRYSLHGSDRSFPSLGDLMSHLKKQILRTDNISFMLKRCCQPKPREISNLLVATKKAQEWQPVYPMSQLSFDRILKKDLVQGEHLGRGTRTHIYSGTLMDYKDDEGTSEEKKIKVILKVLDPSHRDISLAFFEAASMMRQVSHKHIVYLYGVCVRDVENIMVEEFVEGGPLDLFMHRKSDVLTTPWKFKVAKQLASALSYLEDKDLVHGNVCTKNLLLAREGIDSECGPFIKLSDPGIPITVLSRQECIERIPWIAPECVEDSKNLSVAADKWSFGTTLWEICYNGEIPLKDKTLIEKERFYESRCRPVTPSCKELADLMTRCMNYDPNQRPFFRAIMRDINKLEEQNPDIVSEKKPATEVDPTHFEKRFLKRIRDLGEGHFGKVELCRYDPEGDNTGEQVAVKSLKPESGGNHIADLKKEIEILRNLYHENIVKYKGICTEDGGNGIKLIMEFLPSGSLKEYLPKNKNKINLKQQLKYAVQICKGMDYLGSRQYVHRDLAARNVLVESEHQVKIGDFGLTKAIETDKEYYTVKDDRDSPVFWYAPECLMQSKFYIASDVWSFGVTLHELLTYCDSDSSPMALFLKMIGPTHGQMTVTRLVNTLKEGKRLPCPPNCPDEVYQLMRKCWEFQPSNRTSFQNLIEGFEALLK
The target in assay [8] is Cyclin-dependent kinase 1/cyclin B1 (Homo sapiens) (UniProt P06493+P14635). The assay can be described thus: Inhibition of CDK1/cyclin B (unknown origin) at 1 uM by selectscreen kinase profiling assay in presence of ATP. The assay is classed as protein-complex assay.
Sequence of Cyclin-dependent kinase 1/cyclin B1 (Homo sapiens) (P06493 whole entry, looked up): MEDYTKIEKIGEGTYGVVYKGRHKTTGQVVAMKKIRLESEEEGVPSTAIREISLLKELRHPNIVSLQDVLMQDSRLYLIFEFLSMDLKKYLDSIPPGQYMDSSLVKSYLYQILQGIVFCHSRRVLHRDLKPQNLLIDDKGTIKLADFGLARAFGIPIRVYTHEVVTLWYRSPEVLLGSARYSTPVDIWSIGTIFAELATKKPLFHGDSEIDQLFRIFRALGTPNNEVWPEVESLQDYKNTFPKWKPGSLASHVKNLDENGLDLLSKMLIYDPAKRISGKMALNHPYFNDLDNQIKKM
Sequence of Cyclin-dependent kinase 1/cyclin B1 (Homo sapiens) (P14635 whole entry, looked up): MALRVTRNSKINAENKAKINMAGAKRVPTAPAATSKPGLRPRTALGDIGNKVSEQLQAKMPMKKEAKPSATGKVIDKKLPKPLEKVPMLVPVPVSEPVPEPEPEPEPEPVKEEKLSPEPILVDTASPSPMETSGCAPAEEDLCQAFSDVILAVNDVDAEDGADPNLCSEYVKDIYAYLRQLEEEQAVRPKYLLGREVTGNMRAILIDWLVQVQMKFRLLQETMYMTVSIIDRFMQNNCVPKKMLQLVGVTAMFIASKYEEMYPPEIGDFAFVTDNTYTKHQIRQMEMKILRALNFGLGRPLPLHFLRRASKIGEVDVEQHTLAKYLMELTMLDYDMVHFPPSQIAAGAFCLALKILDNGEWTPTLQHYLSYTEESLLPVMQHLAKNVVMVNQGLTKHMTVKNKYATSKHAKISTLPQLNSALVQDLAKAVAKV

In the case of `COc1cc2c(cc1OC)CN(CC(=O)Nc1ccc3c(c1)/C(=C/c1cnc[nH]1)C(=O)N3)CC2`, the inhibition in assay [1] is 42%; in assay [3], “Dose-dependent effect”; in assay [4] it was “tde”; in assay [6] it was 24%; in assay [7], -1%; in assay [8], 18%. The Activity in assay [2] amounted to 17.2%. Besides, the outcome in assay [5] was Active.
